According to patent US4642332A, “Effective hormonal peptides: D-3-Pal^6 -LHRH” (The Board of Regents, The University of Texas System, priority 1985, dated 1987):

Tests used:
[1] = tested on: pituitary cells from 21 day old rats; assay: In vitro pituitary incubate assay (release of LH and FSH); format: cell-based, rat; conditions: mean of 9
Method: The data in Tables IV and V are from the in vitro assay of the peptides with the pituitary incubate. This assay measures the release of LH and FSH in an in vitro system with pituitary cells from 21 day old rats. See, Bowers, C. Y. et al. on the inhibitory effects of leutinizing hormone releasing hormone analogs. Endocrinology, 106: 674 (1980).
The abbreviations are as follows: sc-subcutaneous, SEM-standard error of the mean; NS-not significant; ng-nanogram, and ml-milliliter. The p value represents the population coefficient .rho.(rho) which signifies whether a sample coefficient is significant or a chance deviation from zero.

21 day old female rats = assay: In vivo assay in rats for release of LH and FSH; design: species or system rat; conditions: for Serum FSH ng/ml SEM / Serum LH ng/ml SEM: Table IX, blood sample at ±60 minutes; for Serum FSH ng/ml SEM / Serum LH ng/ml SEM / FSH ng/ml Serum ± SEM at +120 min / LH ng/ml Serum ± SEM at +120 min: mean of 6; for +2 hrs LH ± SEM ng/ml serum / FSH ± SEM ng/ml serum (+2 hrs) / +3 hrs LH ± SEM ng/ml serum / FSH ± SEM ng/ml serum (+3 hrs): Table XI, 150 ng sc, mean 5-6; for FSH ng/ml Serum ± SEM at +120 min / LH ng/ml Serum ± SEM at +120 min: Table X
Method: In vivo rat assay performed by a modification of the method of Bowers, C. Y. et al. Endocrinology, 106, 674 (1980). 21 day old female rats were injected sc with saline or peptide. Blood samples for the RIAs of LH and FSH were collected at +15, +60, +120, or +180 minutes. (Tables VI-XI).

[2] = Table IV, dosage 0.03 ng/ml medium
[3] = Table IV, dosage 0.1 ng/ml medium
[4] = Table IV, dosage 0.3 ng/ml medium
[5] = Table IV, dosage 1.0 ng/ml medium
[6] = Table V, dosage .03 ng/ml medium
[7] = Table V, dosage .10 ng/ml medium
[8] = Table V, dosage .30 ng/ml medium
[9] = Table VI, 15 ng/rat sc, mean of 9
[10] = Table VI, 50 ng/rat sc, mean of 9
[11] = Table VI, 150 ng/rat sc, mean of 9
[12] = Table VIII first section (time not given), 15 ng/rat sc, mean of 5-6
[13] = Table VIII first section (time not given), 50 ng/rat sc, mean of 5-6
[14] = Table VIII first section (time not given), 150 ng/rat sc, mean of 5-6
[15] = Table VIII, ±60 min after injection, 150 ng/rat sc, mean of 5-6

Question: For “LHRH: peptide hormone known as the leutinizing hormone releasing hormone, exists naturally in the hypothalamus”, which “FSH released into medium (ng/ml) ± SEM” value [1, 2] is on record?
Answer: The value was 638 ± 292.

Question: What about the “LH ng/ml medium ± SEM” value [1, 2] of the same compound?
Answer: The value was 52 ± 20 ng/mL.

Question: What about the “FSH released into medium (ng/ml) ± SEM” value [1, 3] of the same compound?
Answer: Its value is 266 ± 235.

Question: What about the “LH ng/ml medium ± SEM” value [1, 3] of the same compound?
Answer: Its value is 214 ± 30 ng/mL.

Question: And the “FSH released into medium (ng/ml) ± SEM” value [1, 4]?
Answer: Its value is 4556 ± 752.

Question: What about the “LH ng/ml medium ± SEM” value [1, 4] of the same compound?
Answer: The value was 771 ± 162 ng/mL.

Question: And the “FSH released into medium (ng/ml) ± SEM” value [1, 5]?
Answer: Its value is 8063 ± 943.

Question: And the “LH ng/ml medium ± SEM” value [1, 5]?
Answer: Its value is 1434 ± 156 ng/mL.

Question: What about the “FSH ng/ml medium ± SEM” value [1, 6] of the same compound?
Answer: Its value is 598 ± 137 ng/mL.

Question: And the “LH ng/ml medium ± SEM” value [1, 6]?
Answer: The value was 33 ± 24 ng/mL.

Question: And the “FSH ng/ml medium ± SEM” value [1, 7]?
Answer: Its value is 794 ± 52 ng/mL.

Question: And the “LH ng/ml medium ± SEM” value [1, 7]?
Answer: The value was 206 ± 42 ng/mL.

Question: And the “FSH ng/ml medium ± SEM” value [1, 8]?
Answer: The value was 2709 ± 252 ng/mL.

Question: And the “LH ng/ml medium ± SEM” value [1, 8]?
Answer: Its value is 892 ± 92 ng/mL.

Question: And the “Serum FSH ng/ml SEM” value (21 day old female rats; 50 ng/rat sc)?
Answer: Its value is 909 ± 118 ng/mL.

Question: What about the “Serum LH ng/ml SEM” value (21 day old female rats; 50 ng/rat sc) of the same compound?
Answer: The value was 5 ± 0.5 ng/mL.

Question: What about the “Serum FSH ng/ml SEM” value (21 day old female rats; 150 ng/rat sc) of the same compound?
Answer: The value was 1076 ± 185 ng/mL.

Question: What about the “Serum LH ng/ml SEM” value (21 day old female rats; 150 ng/rat sc) of the same compound?
Answer: The value was 17 ± 3 ng/mL.

Question: What about the “Serum FFSH ng/ml ± SEM” value (21 day old female rats; [9]) of the same compound?
Answer: Its value is 475 ± 43 ng/mL.

Question: And the “Serum LH ng/ml ± SEM” value (21 day old female rats; [9])?
Answer: The value was 1.3 ± 0.2 ng/mL.

Question: What about the “Serum FFSH ng/ml ± SEM” value (21 day old female rats; [10]) of the same compound?
Answer: Its value is 572 ± 68 ng/mL.

Question: What about the “Serum LH ng/ml ± SEM” value (21 day old female rats; [10]) of the same compound?
Answer: Its value is 3.2 ± 0.3 ng/mL.

Question: What about the “Serum FFSH ng/ml ± SEM” value (21 day old female rats; [11]) of the same compound?
Answer: Its value is 839 ± 73 ng/mL.

Question: What about the “Serum LH ng/ml ± SEM” value (21 day old female rats; [11]) of the same compound?
Answer: The value was 12 ± 3 ng/mL.

Question: And the “LH ng/ml Serum ± SEM ± 15 min” value (21 day old female rats; Table VII, dosage 100 mg/rat sc (so in the source), ± 15 min)?
Answer: The value was 49 ± 10 ng/mL.

Question: What about the “LH ng/ml Serum ± SEM ± 60 min” value (21 day old female rats; Table VII, dosage 100 mg/rat sc (so in the source), ± 60 min) of the same compound?
Answer: Its value is 5.5 ± 0.9 ng/mL.

Question: What about the “Serum FSH ng/ml ± SEM” value (21 day old female rats; [12]) of the same compound?
Answer: The value was 1147 ± 489 ng/mL.

Question: What about the “Serum LH ng/ml ± SEM” value (21 day old female rats; [12]) of the same compound?
Answer: The value was 21.0 ± 4.0 ng/mL.

Question: What about the “Serum FSH ng/ml ± SEM” value (21 day old female rats; [13]) of the same compound?
Answer: Its value is 2228 ± 448 ng/mL.

Question: What about the “Serum LH ng/ml ± SEM” value (21 day old female rats; [13]) of the same compound?
Answer: Its value is 53.9 ± 9.0 ng/mL.

Question: And the “Serum FSH ng/ml ± SEM” value (21 day old female rats; [14])?
Answer: The value was 1536 ± 172 ng/mL.

Question: What about the “Serum LH ng/ml ± SEM” value (21 day old female rats; [14]) of the same compound?
Answer: The value was 62.0 ± 21.0 ng/mL.

Question: And the “Serum FSH ng/ml ± SEM” value (21 day old female rats; [15])?
Answer: Its value is 2448 ± 209 ng/mL.

Question: And the “Serum LH ng/ml ± SEM” value (21 day old female rats; [15])?
Answer: The value was 39.0 ± 17 ng/mL.

Question: What about the “+2 hrs LH ± SEM ng/ml serum” value (21 day old female rats) of the same compound?
Answer: The value was “.18 ± 0.07 ng/mL”.

Question: What about the “FSH ± SEM ng/ml serum (+2 hrs)” value (21 day old female rats) of the same compound?
Answer: The value was 337 ± 20 ng/mL.

Question: And the “+3 hrs LH ± SEM ng/ml serum” value (21 day old female rats)?
Answer: Its value is 0.66 ± 0.46 ng/mL.

Question: And the “FSH ± SEM ng/ml serum (+3 hrs)” value (21 day old female rats)?
Answer: The value was 487 ± 72 ng/mL.

Question: What about the FSH released (21 day old female rats; dosage of 15 ng) of the same compound?
Answer: The FSH released was 572 ± 68 ng.

Question: And the “release of LH (in words)” value (21 day old female rats; dosage of 15 ng)?
Answer: The value was “inactive”.

Question: What does the source list for `CCNC(=O)[C@@H]1CCCN1C(=O)[C@H](CCCNC(=N)N)NC(=O)[C@H](CC(C)C)NC(=O)[C@@H](Cc1cccnc1)NC(=O)[C@H](Cc1ccc(O)cc1)NC(=O)[C@H](CO)NC(=O)[C@H](Cc1c[nH]c2ccccc12)NC(=O)[C@H](Cc1c[nH]cn1)NC(=O)[C@@H]1CCC(=O)N1` [Peptide 21436, pyroGlu-His-Trp-Ser-Tyr-D-3-Pal-Leu-Arg-Pro-NHC2 H5]?
Answer: Serum FSH ng/ml SEM (21 day old female rats; 50 ng/rat sc): 3471 ± 229 ng/mL; Serum LH ng/ml SEM (21 day old female rats; 50 ng/rat sc): 116 ± 20 ng/mL; Serum FSH ng/ml SEM (21 day old female rats; 150 ng/rat sc): 1458 ± 424 ng/mL; Serum LH ng/ml SEM (21 day old female rats; 150 ng/rat sc): 144 ± 37 ng/mL; FSH ng/ml Serum ± SEM at +120 min (21 day old female rats; 50 ng/rat sc): 4692 ± 393 ng/mL; LH ng/ml Serum ± SEM at +120 min (21 day old female rats; 50 ng/rat sc): 291 ± 11 ng/mL; FSH ng/ml Serum ± SEM at +120 min (21 day old female rats; 150 ng/rat sc): 4811 ± 782 ng/mL; LH ng/ml Serum ± SEM at +120 min (21 day old female rats; 150 ng/rat sc): 278 ± 14 ng/mL; +2 hrs LH ± SEM ng/ml serum (21 day old female rats): 237 ± 52 ng/mL; FSH ± SEM ng/ml serum (+2 hrs) (21 day old female rats): 2415 ± 361 ng/mL; +3 hrs LH ± SEM ng/ml serum (21 day old female rats): 106 ± 13 ng/mL; FSH ± SEM ng/ml serum (+3 hrs) (21 day old female rats): 2205 ± 298 ng/mL
